In US10738040B2, “Compounds, compositions, and methods for increasing CFTR activity” (Proteostasis Therapeutics, Inc., priority 2014, dated 2020):
Marks after values point to notes of the source that are not given here.

What was measured:
[1] = biological target: T1, ΔF508-CFTR (Homo sapiens, UniProt P13569, DEL508-508); assay: hBE equivalent current (Ieq) assay; format: cell-based; conditions: compound at 10 uM and VX-809 at 1 uM, relative to VX-809 (1 uM); primary lung epithelial cells homozygous for ΔF508, 24 hours treatment; AUC of equivalent chloride current
T1 construct: Primary lung epithelial cells homozygous for the Cystic Fibrosis-causing ΔF508 mutation were differentiated; endogenous in cells; host or cells: primary human lung (bronchial) epithelial cells homozygous for ΔF508, differentiated at air-liquid interface
T1 sequence (P13569 with tags, fused parts or gaps DEL508-508): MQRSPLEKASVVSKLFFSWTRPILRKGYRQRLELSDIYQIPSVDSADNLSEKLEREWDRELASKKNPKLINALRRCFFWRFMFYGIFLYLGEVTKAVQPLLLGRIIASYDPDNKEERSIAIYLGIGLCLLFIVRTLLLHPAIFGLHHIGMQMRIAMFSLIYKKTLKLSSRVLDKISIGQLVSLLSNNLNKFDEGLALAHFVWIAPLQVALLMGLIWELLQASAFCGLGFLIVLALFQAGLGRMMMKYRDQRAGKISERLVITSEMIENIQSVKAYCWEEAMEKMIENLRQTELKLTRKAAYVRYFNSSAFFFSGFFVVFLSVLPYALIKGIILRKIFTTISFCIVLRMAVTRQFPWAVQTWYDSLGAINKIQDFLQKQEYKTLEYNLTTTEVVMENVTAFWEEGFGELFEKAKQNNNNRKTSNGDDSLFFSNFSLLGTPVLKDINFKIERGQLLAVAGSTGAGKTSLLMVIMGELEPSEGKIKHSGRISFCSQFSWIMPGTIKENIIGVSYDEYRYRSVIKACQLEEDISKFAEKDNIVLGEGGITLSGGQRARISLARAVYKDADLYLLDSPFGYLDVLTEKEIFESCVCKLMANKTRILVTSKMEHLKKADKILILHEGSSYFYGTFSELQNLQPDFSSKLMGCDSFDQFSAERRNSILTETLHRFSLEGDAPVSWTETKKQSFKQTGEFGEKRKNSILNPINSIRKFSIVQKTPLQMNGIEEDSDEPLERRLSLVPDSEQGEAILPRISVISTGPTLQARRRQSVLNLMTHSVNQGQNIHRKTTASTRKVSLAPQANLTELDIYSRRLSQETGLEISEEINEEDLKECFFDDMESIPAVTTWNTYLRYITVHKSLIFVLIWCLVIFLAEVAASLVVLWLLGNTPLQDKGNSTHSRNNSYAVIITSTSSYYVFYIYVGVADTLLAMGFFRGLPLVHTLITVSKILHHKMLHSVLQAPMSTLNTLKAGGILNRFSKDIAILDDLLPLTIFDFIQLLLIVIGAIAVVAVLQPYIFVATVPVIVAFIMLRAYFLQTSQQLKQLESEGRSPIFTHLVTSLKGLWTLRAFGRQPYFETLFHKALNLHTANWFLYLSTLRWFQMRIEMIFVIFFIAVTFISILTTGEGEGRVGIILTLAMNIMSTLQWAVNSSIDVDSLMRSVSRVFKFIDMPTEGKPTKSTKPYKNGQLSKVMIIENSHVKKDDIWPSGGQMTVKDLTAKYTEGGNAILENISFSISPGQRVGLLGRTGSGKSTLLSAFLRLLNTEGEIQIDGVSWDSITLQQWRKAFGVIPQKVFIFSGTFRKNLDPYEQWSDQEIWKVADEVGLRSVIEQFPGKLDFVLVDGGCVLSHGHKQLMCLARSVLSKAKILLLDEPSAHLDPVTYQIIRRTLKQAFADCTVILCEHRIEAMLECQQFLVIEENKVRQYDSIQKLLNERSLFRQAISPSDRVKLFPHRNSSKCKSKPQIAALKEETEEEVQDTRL
Experimental: ii. hBE Equivalent Current (Ieq) Assay
Primary lung epithelial cells homozygous for the Cystic Fibrosis-causing ΔF508 mutation were differentiated for a minimum of 4 weeks in an air-liquid interface on Costar 24 well HTS filter plates prior to the equivalent current (Ieq) measurements. Cells were apically mucus-washed for 30 minutes 24 h prior to treatment with compounds. The basolateral media was removed and replaced with media containing the compound of interest diluted to its final concentration from DMSO stocks. Treated cells were incubated at 37° C. and 5% CO2 for 24 hours. At the end of the treatment period, the media was changed to the Ieq experimental solution for 30 minutes before the experiment and plates are maintained in a CO2-free incubator during this period. The plates containing the cells were then placed in pre-warmed heating blocks at 36° ° C.±0.5 for 15 minutes before measurements are taken. The transepithelial voltage (VT) and conductance (GT) were measured using a custom 24 channel current clamp (TECC-24) with 24 well electrode manifold. The Ieq assay measurements were made following additions with standardized time periods: • 1. The baseline VT and GT values were measured for approximately 20 minutes. • 2. Benzamil was added to block ENaC for 15 minutes. • 3. Forskolin plus VX-770 (ivacaftor) were added to maximally activate ΔF508-CFTR for 27 minutes. • 4. Bumetanide was added to inhibit the NaK2Cl cotransporter and shut-off secretion of chloride.
The activity data captured was the area under the curve (AUC) for the traces of the equivalent chloride current. The AUC was collected from the time of the forskolin/VX-770 addition until the inhibition by bumetanide addition. Correction in response to compound treatment was scored as the increase in the AUC for compound-treated samples over that of vehicle-treated samples.

[2] = biological target: T1, ΔF508-CFTR; assay: Ussing measurements (short-circuit current, CFTRinh-172-inhibitable); format: cell-based; conditions: compound at 10 uM and VX-809 at 3 uM, relative to VX-809 (3 uM); hBEs homozygous for ΔF508, 24 hours treatment; CFTRinh-172-inhibitable current
Experimental: As discussed above, Ussing measurements can be used to measure CFTR activity. In this method, primary lung epithelial cells (hBEs) homozygous for the Cystic Fibrosis-causing ΔF508 mutation were differentiated for a minimum of 4 weeks in an air-liquid interface on SnapWell filter plates prior to the Ussing measurements. Cells were apically mucus-washed for 30 minutes prior to treatment with compounds. The basolateral media was removed and replaced with media containing the compound of interest diluted to its final concentration from DMSO stocks. Treated cells were incubated at 37° C. and 5% CO2 for 24 hours. At the end of the treatment period, the cells on filters were transferred to the Ussing chamber and equilibrated for 30 minutes. The short-circuit current was measured in voltage clamp-mode (Vhold=0 mV), and the entire assay was conducted at a temperature of 36° C.-36.5° C. Once the voltages stabilized, the chambers were clamped, and data was recorded by pulse readings every 5 seconds. Following baseline current stabilization, the following additions were applied and the changes in current and resistance of the cells was monitored: • 1. Benzamil to the apical chamber to inhibit ENaC sodium channel. • 2. Forskolin to both chambers to activate ΔF508-CFTR by phosphorylation. • 3. Genistein to both chambers to potentiate ΔF508-CFTR channel opening. • 4. CFTRinh-172 to the apical chamber to inhibit ΔF508-CFTR Cl— conductance. The inhibitable current (that current that is blocked by CFTRinh-172) is measured as the specific activity of the ΔF508-CFTR channel, and increases in response to compound in this activity over that observed in vehicle-treated samples are identified as the correction of ΔF508-CFTR function imparted by the compound tested.

Compound | Ieq (% VX-809) [1] | Ussing (% VX-809) [2]
O=C(N[C@H]1C[C@@H](n2cc(CO)nn2)C1)c1cc(-c2ccccc2)on1 | ** (activity ≥200% of VX-809 (1 uM) with compound at 10 uM and VX-809 at 1 uM) | ## (activity ≥200% of VX-809 (3 uM) with compound at 10 uM and VX-809 at 3 uM)
C[C@@H](O)c1nnc(C[C@H]2C[C@H](NC(=O)c3cc(-c4ccccc4)on3)C2)o1 | ** (activity ≥200% of VX-809 (1 uM) with compound at 10 uM and VX-809 at 1 uM) | ## (activity ≥200% of VX-809 (3 uM) with compound at 10 uM and VX-809 at 3 uM)
C[C@H](O)c1nnc([C@H]2C[C@@H](NC(=O)c3cc(-c4ccccc4)on3)C2)o1 | ** (activity ≥200% of VX-809 (1 uM) with compound at 10 uM and VX-809 at 1 uM) | ## (activity ≥200% of VX-809 (3 uM) with compound at 10 uM and VX-809 at 3 uM)
O=C(N[C@H]1C[C@@H](c2noc(CO)n2)C1)c1cc(-c2ccccc2)on1 | ** (activity ≥200% of VX-809 (1 uM) with compound at 10 uM and VX-809 at 1 uM) | ## (activity ≥200% of VX-809 (3 uM) with compound at 10 uM and VX-809 at 3 uM)
C[C@H](O)c1nnc([C@H]2C[C@@H](NC(=O)c3cc(-c4ccccc4)on3)C2)s1 | ** (activity ≥200% of VX-809 (1 uM) with compound at 10 uM and VX-809 at 1 uM) | ## (activity ≥200% of VX-809 (3 uM) with compound at 10 uM and VX-809 at 3 uM)
C[C@H](O)c1nnc([C@H]2C[C@H](NC(=O)c3cc(-c4ccccc4)on3)C2)s1 | ** (activity ≥200% of VX-809 (1 uM) with compound at 10 uM and VX-809 at 1 uM) | ## (activity ≥200% of VX-809 (3 uM) with compound at 10 uM and VX-809 at 3 uM)
C[C@@H](O)c1cnnn1[C@H]1C[C@H](NC(=O)c2cc(-c3ccccc3)on2)C1 | ** (activity ≥200% of VX-809 (1 uM) with compound at 10 uM and VX-809 at 1 uM) | ## (activity ≥200% of VX-809 (3 uM) with compound at 10 uM and VX-809 at 3 uM)
C[C@@H](O)c1nnc([C@H]2C[C@@H](NC(=O)c3cc(-c4ccccc4)on3)C2)o1 | ** (activity ≥200% of VX-809 (1 uM) with compound at 10 uM and VX-809 at 1 uM) | ## (activity ≥200% of VX-809 (3 uM) with compound at 10 uM and VX-809 at 3 uM)
CO[C@H](C)c1nnc([C@H]2C[C@@H](NC(=O)c3cc(-c4ccccc4)on3)C2)o1 | * (activity 100-200% of VX-809 (1 uM) with compound at 10 uM and VX-809 at 1 uM) | ## (activity ≥200% of VX-809 (3 uM) with compound at 10 uM and VX-809 at 3 uM)
O=C(N[C@H]1C[C@H](c2nnc(CO)s2)C1)c1cc(-c2ccccc2)on1 | ** (activity ≥200% of VX-809 (1 uM) with compound at 10 uM and VX-809 at 1 uM) | ## (activity ≥200% of VX-809 (3 uM) with compound at 10 uM and VX-809 at 3 uM)
O=C(N[C@H]1C[C@@H](n2nncc2CO)C1)c1cc(-c2ccccc2)on1 | ** (activity ≥200% of VX-809 (1 uM) with compound at 10 uM and VX-809 at 1 uM) | ## (activity ≥200% of VX-809 (3 uM) with compound at 10 uM and VX-809 at 3 uM)
C[C@H](O)c1cnnn1[C@H]1C[C@H](NC(=O)c2cc(-c3ccccc3)on2)C1 | ** (activity ≥200% of VX-809 (1 uM) with compound at 10 uM and VX-809 at 1 uM) | # (activity 100-200% of VX-809 (3 uM) with compound at 10 uM and VX-809 at 3 uM)
C[C@H](O)c1nnc(C2CC(NC(=O)c3cc(-c4ccccc4)on3)C2)o1 (stereo partly shown) | ** (activity ≥200% of VX-809 (1 uM) with compound at 10 uM and VX-809 at 1 uM) | ## (activity ≥200% of VX-809 (3 uM) with compound at 10 uM and VX-809 at 3 uM)
C[C@H](O)c1nnc(C[C@H]2C[C@H](NC(=O)c3cc(-c4ccccc4)on3)C2)s1 | ** (activity ≥200% of VX-809 (1 uM) with compound at 10 uM and VX-809 at 1 uM) | ## (activity ≥200% of VX-809 (3 uM) with compound at 10 uM and VX-809 at 3 uM)
C[C@@H](O)c1nnc([C@H]2C[C@@H](NC(=O)c3cc(-c4ccccc4)on3)C2)s1 | ** (activity ≥200% of VX-809 (1 uM) with compound at 10 uM and VX-809 at 1 uM) | ## (activity ≥200% of VX-809 (3 uM) with compound at 10 uM and VX-809 at 3 uM)
C[C@H](c1nnc([C@H]2C[C@H](NC(=O)c3cc(-c4ccccc4)on3)C2)o1)S(C)(=O)=O | * (activity 100-200% of VX-809 (1 uM) with compound at 10 uM and VX-809 at 1 uM) | ## (activity ≥200% of VX-809 (3 uM) with compound at 10 uM and VX-809 at 3 uM)
C[C@@H](O)c1nnc(C2CC(NC(=O)c3cc(-c4ccccc4)on3)C2)o1 (stereo partly shown) | ** (activity ≥200% of VX-809 (1 uM) with compound at 10 uM and VX-809 at 1 uM) | ## (activity ≥200% of VX-809 (3 uM) with compound at 10 uM and VX-809 at 3 uM)
O=C(N[C@H]1C[C@H](n2cc(CO)nn2)C1)c1cc(-c2ccccc2)on1 | ++ * | ## (activity ≥200% of VX-809 (3 uM) with compound at 10 uM and VX-809 at 3 uM)
C[C@@H](O)c1nnc(C[C@H]2C[C@H](NC(=O)c3cc(-c4ccccc4)on3)C2)s1 | ** (activity ≥200% of VX-809 (1 uM) with compound at 10 uM and VX-809 at 1 uM) | ## (activity ≥200% of VX-809 (3 uM) with compound at 10 uM and VX-809 at 3 uM)
O=C(N[C@H]1C[C@H](c2noc(CO)n2)C1)c1cc(-c2ccccc2)on1 | ** (activity ≥200% of VX-809 (1 uM) with compound at 10 uM and VX-809 at 1 uM) | ## (activity ≥200% of VX-809 (3 uM) with compound at 10 uM and VX-809 at 3 uM)
O=C(N[C@H]1C[C@H](n2nncc2CO)C1)c1cc(-c2ccccc2)on1 | ++ * | ## (activity ≥200% of VX-809 (3 uM) with compound at 10 uM and VX-809 at 3 uM)
O=C(NC1CC(c2nc(CO)no2)C1)c1cc(-c2ccccc2)on1 (stereo not shown) | ** (activity ≥200% of VX-809 (1 uM) with compound at 10 uM and VX-809 at 1 uM) | ## (activity ≥200% of VX-809 (3 uM) with compound at 10 uM and VX-809 at 3 uM)
C[C@@H](O)c1nnc([C@H]2C[C@H](NC(=O)c3cc(-c4ccccc4)on3)C2)s1 | ** (activity ≥200% of VX-809 (1 uM) with compound at 10 uM and VX-809 at 1 uM) | ## (activity ≥200% of VX-809 (3 uM) with compound at 10 uM and VX-809 at 3 uM)
